Values joined by “and” are separate entries in the source; they are usually repeats but may differ in a detail not shown here. Equal values may be shown once.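 Protocol summary: plate cells (96-well), add compound at 5 concentrations, incubate 48 h, interpolate endpoints linearly. Here, GI50 denotes the concentration required for 50% inhibition of growth. TGI: concentration producing complete growth inhibition.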

Test systems include 786-0 renal; A549 NSCLC; NCI-H23 lung; EKVX NSCLC; ACHN renal; SNB-78 CNS; SNB-19 CNS; SF-295 CNS; CAKI-1 renal; RPMI-8226 leukemia.
Common to all, as to experiment: growth of human tumour cells (NCI), 48 h

`Cn1cc(NC(=O)c2cc(NC(=O)CCCCCC(=O)Nc3cc(C(=O)Nc4cc(C(=O)NCCC(=N)N)n(C)c4)n(C)c3)cn2C)cc1C(=O)NCCC(=N)N`: the TGI in the experiment on 786-0 renal, with A549 NSCLC, in the experiment with NCI-H23 lung, in the experiment with EKVX NSCLC, with ACHN renal and in the experiment with SNB-78 CNS was greater than 100 µM in each case. In addition, the TGI in the experiment with SNB-19 CNS, in the experiment on SF-295 CNS and with CAKI-1 renal was greater than 100 µM each time.
`O=C1c2cccc3cc([N+](=O)[O-])cc(c23)C(=O)N1CCCN1CCN(CCCN2C(=O)c3cccc4cc([N+](=O)[O-])cc(c34)C2=O)CC1`: the TGI is 5.55 µM in the experiment on 786-0 renal; greater than 100 µM in the experiment on A549 NSCLC; 7.64 µM in the experiment on NCI-H23 lung; greater than 100 µM in the experiment with RPMI-8226 leukemia; greater than 100 µM in the experiment on EKVX NSCLC; 4.28 µM in the experiment with ACHN renal. Also, the results for the TGI in the experiment on SNB-78 CNS, in the experiment with SNB-19 CNS and in the experiment on SF-295 CNS were 12.9 µM, greater than 100 µM and 12.4 µM, respectively.
On to `COc1ccc(/C=[N+](\[O-])[C@H](COCc2ccccc2)c2ccccc2)cc1`, for which the TGI in the experiment on 786-0 renal, in the experiment with NCI-H23 lung, in the experiment on RPMI-8226 leukemia, in the experiment on EKVX NSCLC, in the experiment with ACHN renal and in the experiment with SNB-78 CNS was greater than 100 µM in each case. Besides, the TGI in the experiment with SNB-19 CNS and in the experiment on SF-295 CNS was greater than 100 µM in each case.
As for `Cn1cnc([N+](=O)[O-])c1Sc1ncnc2nc[nH]c12`, the GI50 in the experiment on 786-0 renal was 3.25 µM and 3.77 µM; in the experiment with A549 NSCLC, 40 µM and > 67.3 µM; with NCI-H23 lung it was 4.01 µM and 13.3 µM; in the experiment on RPMI-8226 leukemia it was 3.18 µM and 1.55 µM; in the experiment with EKVX NSCLC it was 28.3 µM and > 100 µM; with ACHN renal it was 38.1 µM and 41.7 µM. Also, the GI50 was 61.4 µM and 84.4 µM with SNB-19 CNS; 1.61 µM and 9.82 µM in the experiment on SF-295 CNS; 2.6 µM and 5.07 µM with CAKI-1 renal. Further, the TGI in the experiment with 786-0 renal, in the experiment with A549 NSCLC, with NCI-H23 lung, in the experiment on RPMI-8226 leukemia, in the experiment with EKVX NSCLC and in the experiment on ACHN renal was greater than 100 µM in each case. Besides, the TGI in the experiment on SNB-19 CNS, in the experiment on SF-295 CNS and in the experiment with CAKI-1 renal was greater than 100 µM in each case.
As for `O=C1C=C(c2cc(Br)c(O)c(Br)c2)/C(=C/c2cc(Br)c(O)c(Br)c2)O1`, the GI50 with 786-0 renal is 35.8 µM; in the experiment on A549 NSCLC, 11.2 µM; in the experiment with NCI-H23 lung it was 35.2 µM; in the experiment with RPMI-8226 leukemia it was 22.2 µM; with EKVX NSCLC, 54.1 µM; in the experiment on ACHN renal, 29.4 µM. Moreover, the GI50 is 14 µM in the experiment on SNB-19 CNS, 29.4 µM with SF-295 CNS and 34.3 µM in the experiment on CAKI-1 renal. Besides, the TGI with 786-0 renal was greater than 75 µM; in the experiment with A549 NSCLC, 49.3 µM; in the experiment on NCI-H23 lung it was greater than 75 µM; in the experiment with RPMI-8226 leukemia it was 66.7 µM; with EKVX NSCLC it was greater than 75 µM; in the experiment on ACHN renal, greater than 75 µM. Also, the TGI with SNB-19 CNS, with SF-295 CNS and in the experiment with CAKI-1 renal was greater than 75 µM in each case.
With `O=S(=O)(O)c1ccc2cc(N=Nc3cc(S(=O)(=O)O)c4cccnc4c3O)ccc2c1`, the TGI in the experiment with 786-0 renal, in the experiment on A549 NSCLC, with NCI-H23 lung, in the experiment with RPMI-8226 leukemia, in the experiment on EKVX NSCLC and in the experiment with ACHN renal was greater than 100 µM each time. Moreover, the TGI in the experiment on SNB-19 CNS, with SF-295 CNS and in the experiment with CAKI-1 renal was greater than 100 µM in each case.
With `CC(C)(C)C([O-])=C1C(=O)c2ccccc2C1=O.CC(C)(C)C([O-])=C1C(=O)c2ccccc2C1=O.CC[O-].CC[O-].[Ti+4]`, the GI50 is 47.2 µM in the experiment with 786-0 renal; 36.2 µM in the experiment with A549 NSCLC; 31.8 µM with NCI-H23 lung; 21.7 µM with EKVX NSCLC; 35.2 µM in the experiment on ACHN renal; 28.4 µM in the experiment on SNB-78 CNS. The results for the GI50 with SNB-19 CNS, with SF-295 CNS and with CAKI-1 renal were 40.8 µM, 28.3 µM and 28 µM, respectively. The TGI with 786-0 renal was greater than 100 µM; with A549 NSCLC, greater than 100 µM; in the experiment on NCI-H23 lung, greater than 100 µM; in the experiment with EKVX NSCLC it was 63.9 µM; in the experiment on ACHN renal it was greater than 100 µM; with SNB-78 CNS it was 93.8 µM. In addition, the TGI in the experiment on SNB-19 CNS was greater than 100 µM; in the experiment with SF-295 CNS it was greater than 100 µM; in the experiment on CAKI-1 renal, 81.7 µM.
For the compound `C=CCN(N=O)C(=O)N(CCC)CCCC(NC(C)=O)C(=O)NCc1ccccc1` (centres undefined), the TGI with 786-0 renal, in the experiment with A549 NSCLC, in the experiment with NCI-H23 lung, with RPMI-8226 leukemia, in the experiment on EKVX NSCLC and with ACHN renal was greater than 100 µM in each case. In addition, the TGI in the experiment with SNB-19 CNS, in the experiment with SF-295 CNS and in the experiment on CAKI-1 renal was greater than 100 µM each time.
For `COC(=O)c1ccc2c(c1)c1c(C)c3cnccc3c(C)c1n2C`, the GI50 is 0.0666 µM in the experiment on 786-0 renal; 0.0615 µM in the experiment on A549 NSCLC; 0.053 µM with NCI-H23 lung; 0.0475 µM in the experiment on RPMI-8226 leukemia; 0.186 µM in the experiment with EKVX NSCLC; 0.0297 µM with ACHN renal. For the same compound, the GI50 is 0.0509 µM in the experiment on SNB-19 CNS, 0.0652 µM with SF-295 CNS and 0.0354 µM in the experiment with CAKI-1 renal. Moreover, the TGI in the experiment on 786-0 renal is 1.34 µM; in the experiment with A549 NSCLC it was 0.658 µM; in the experiment on NCI-H23 lung, 0.328 µM; in the experiment on RPMI-8226 leukemia, 0.409 µM; in the experiment on EKVX NSCLC, 0.623 µM; with ACHN renal it was 0.299 µM. Moreover, the results for the TGI with SNB-19 CNS, in the experiment on SF-295 CNS and with CAKI-1 renal were 7.65 µM, 0.558 µM and 0.61 µM, respectively.
As for `CCN(CC)C(=S)SSC1CCCCC1`, the GI50 in the experiment with 786-0 renal was 19.6 µM; with A549 NSCLC, 30.9 µM; in the experiment on NCI-H23 lung it was 20.8 µM; in the experiment on RPMI-8226 leukemia it was 9.99 µM; in the experiment with EKVX NSCLC, 30.5 µM; in the experiment with ACHN renal, 16.6 µM. The GI50 with SNB-19 CNS was 32.6 µM; in the experiment on SF-295 CNS, 17.6 µM; in the experiment with CAKI-1 renal, 11.9 µM. The TGI in the experiment on 786-0 renal came to 35 µM; in the experiment with A549 NSCLC, 82.6 µM; in the experiment with NCI-H23 lung, 48.7 µM; in the experiment on RPMI-8226 leukemia it was 31.4 µM; in the experiment with EKVX NSCLC, 91.2 µM; in the experiment on ACHN renal, 32 µM. Also, the figures for the TGI in the experiment with SNB-19 CNS, with SF-295 CNS and in the experiment with CAKI-1 renal were greater than 100 µM, 44.6 µM and 25.2 µM, respectively.

The values are drawn from PubChem BioAssay (NCI).
